Where “and” joins values, the source holds several entries; their conditions need not be identical. Equal entries are not always repeated. Inconclusive results and toxic doses are left out. Rule for the calls: active = survival T/C of 150% or more; inactive = T/C below 125% in these data.
Tested on: P388 leukemia ip, CD2F1 mice, survival T/C
Assay: NCI In Vivo Anticancer Drug Screen. Data for tumor model P388 Leukemia (intraperitoneal) in CD2F1 (CDF1) mice
Settings: endpoint: median survival time, higher = longer survival
Outline: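 Mice carrying the transplanted tumor received test compound or vehicle. Survival was recorded in each group, and the value is the treated-group measurement divided by that of the vehicle-treated control group.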

[1] = dose: 6.25 mg/kg/injection, schedule: Q01DX009 (ip), vehicle: saline with Tween-80
[2] = dose: 12.5 mg/kg/injection, schedule: Q01DX009 (ip), vehicle: saline with Tween-80
[3] = dose: 25.0 mg/kg/injection, schedule: Q01DX009 (ip), vehicle: saline with Tween-80
[4] = dose: 50.0 mg/kg/injection, schedule: Q01DX009 (ip), vehicle: saline with Tween-80
[5] = dose: 50.0 mg/kg/injection, schedule: Q01DX009 (ip), vehicle: Klucel (hydroxypropylcellulose) (HPC)
[6] = dose: 100.0 mg/kg/injection, schedule: Q01DX009 (ip), vehicle: Klucel (hydroxypropylcellulose) (HPC)
[7] = dose: 200.0 mg/kg/injection, schedule: Q01DX009 (ip), vehicle: Klucel (hydroxypropylcellulose) (HPC)
[8] = dose: 50.0 mg/kg/injection, schedule: Q01DX005 (ip), vehicle: Klucel (hydroxypropylcellulose) (HPC)
[9] = dose: 100.0 mg/kg/injection, schedule: Q01DX005 (ip), vehicle: Klucel (hydroxypropylcellulose) (HPC)
[10] = dose: 200.0 mg/kg/injection, schedule: Q01DX005 (ip), vehicle: Klucel (hydroxypropylcellulose) (HPC)
[11] = dose: 50.0 mg/kg/injection, schedule: Q01DX009 (ip), vehicle: other
[12] = dose: 100.0 mg/kg/injection, schedule: Q01DX009 (ip), vehicle: saline with Tween-80
[13] = dose: 200.0 mg/kg/injection, schedule: Q01DX009 (ip), vehicle: saline with Tween-80
[14] = dose: 50.0 mg/kg/injection, schedule: Q01DX005 (ip), vehicle: saline with Tween-80
[15] = dose: 100.0 mg/kg/injection, schedule: Q01DX005 (ip), vehicle: saline with Tween-80
[16] = dose: 400.0 mg/kg/injection, schedule: Q04DX003 (ip), vehicle: saline

Measured: T/C

Cc1nnc2sc3c(Cl)c4nn5c(C)nnc5sc4c(Cl)c3nn12
inactive: dose: 0.78 mg/kg/injection, schedule: Q01DX009 (ip), vehicle: saline with Tween-80 94 % of control | dose: 1.56 mg/kg/injection, schedule: Q01DX009 (ip), vehicle: saline with Tween-80 97 % of control | dose: 3.13 mg/kg/injection, schedule: Q01DX009 (ip), vehicle: saline with Tween-80 92 % of control

CSc1nc2ccccc2[nH]1
inactive: [1] 101 % of control | [2] 106 % of control | [3] 106 % of control | [4] 110 % of control

CCCC1CCC(=C2C(=O)CCC2=O)O1 (stereo unspecified)
inactive: dose: 25.0 mg/kg/injection, schedule: Q04DX002 (ip), vehicle: saline 102 % of control | dose: 50.0 mg/kg/injection, schedule: Q04DX002 (ip), vehicle: saline 102 % of control | dose: 100.0 mg/kg/injection, schedule: Q04DX002 (ip), vehicle: saline with Tween-80 110 % of control | dose: 100.0 mg/kg/injection, schedule: Q04DX002 (ip), vehicle: saline 103 % of control | dose: 200.0 mg/kg/injection, schedule: Q04DX002 (ip), vehicle: saline with Tween-80 102 % of control | dose: 200.0 mg/kg/injection, schedule: Q04DX002 (ip), vehicle: saline 100 % of control

CCc1cccc2c3c([nH]c12)C(CC)(CC(=O)O)OCC3 (stereo unspecified)
inactive: [5] 102 % of control | [6] 110 % of control | [7] 107 % of control

CC(=O)NC(CCS)C(N)=O (stereo unspecified)
inactive: [8] 87 % of control | [9] 99 % of control | [10] 97 % of control

Nc1ccccc1.O=C([CH-]C(=O)C(F)(F)F)c1ccccc1.O=C([CH-]C(=O)C(F)(F)F)c1ccccc1.O=C([CH-]C(=O)C(F)(F)F)c1ccccc1.O=C([CH-]C(=O)C(F)(F)F)c1ccccc1.[Eu+3]
inactive: [6] 100 % of control | [7] 103 % of control

C=COC(=O)C(C)(CC)CC(C)C (stereo unspecified)
inactive: [11] 115 % of control | dose: 100.0 mg/kg/injection, schedule: Q01DX009 (ip), vehicle: other 108 % of control

C/C(=C\C(=N\N=C(N)N)c1ccc(Cl)cc1)c1ccc(Cl)cc1
inactive: [1] 118 % of control | [2] 98 % of control

O=S1(=O)OCc2ccccc21
inactive: dose: 12.5 mg/kg/injection, schedule: Q01DX009 (ip), vehicle: Klucel (hydroxypropylcellulose) (HPC) 98 % of control | dose: 25.0 mg/kg/injection, schedule: Q01DX009 (ip), vehicle: Klucel (hydroxypropylcellulose) (HPC) 100 % of control | [5] 107 % of control | [6] 117 % of control

O=C1C(Br)=C(Br)C(=O)C1(Br)Br
inactive: [1] 118 % of control | dose: 6.25 mg/kg/injection, schedule: Q04DX003 (ip), vehicle: saline with Tween-80 100 % of control | dose: 12.5 mg/kg/injection, schedule: Q04DX003 (ip), vehicle: saline with Tween-80 100 % of control | dose: 25.0 mg/kg/injection, schedule: Q04DX003 (ip), vehicle: saline with Tween-80 120 % of control

C[C](C)(C)[Ge]([O][Ge]([c]1ccccc1)[c]1ccccc1)([O][Ge]([c]1ccccc1)[c]1ccccc1)[C](C)(C)C
inactive: dose: 15.0 mg/kg/injection, schedule: Q01DX005 (ip), vehicle: saline with Tween-80 103 % of control | dose: 30.0 mg/kg/injection, schedule: Q01DX005 (ip), vehicle: saline with Tween-80 103 % of control | dose: 60.0 mg/kg/injection, schedule: Q01DX005 (ip), vehicle: saline with Tween-80 110 % of control and 117 % of control | dose: 120.0 mg/kg/injection, schedule: Q01DX005 (ip), vehicle: saline with Tween-80 117 % of control

COc1ccc(CCCNC(=O)Cc2ccccc2)cc1OC
inactive: [4] 92 % of control | [12] 92 % of control | [13] 91 % of control

CC(C)C(N)S(=O)(=O)O (stereo unspecified)
inactive: [4] 115 % of control | [12] 94 % of control | [13] 105 % of control

O=C1[C@H]2CCC[C@H]2[C@H]2CCC[C@@H]12
inactive: [3] 112 % of control | [12] 119 % of control | [13] 105 % of control

C[Si]1(C)O[Si](C)(C)O[Si](C)(C)O[Si](C)(C)O1
inactive: [8] 100 % of control | [9] 97 % of control | [10] 97 % of control

CN1C(=O)CN2CCc3ccccc3C2c2cc(Cl)ccc21 (stereo unspecified)
inactive: [14] 92 % of control | [15] 98 % of control | dose: 200.0 mg/kg/injection, schedule: Q01DX005 (ip), vehicle: saline with Tween-80 98 % of control

NNc1nc(N2CCCCC2)ns1
inactive: dose: 2.5 mg/kg/injection, schedule: Q01DX009 (ip), vehicle: saline with Tween-80 98 % of control | dose: 5.0 mg/kg/injection, schedule: Q01DX009 (ip), vehicle: saline with Tween-80 110 % of control | dose: 10.0 mg/kg/injection, schedule: Q01DX009 (ip), vehicle: saline with Tween-80 120 % of control

Cc1ccc(S(=O)(=O)N=S(C)C)cc1
inactive: dose: 6.25 mg/kg/injection, schedule: Q01DX009 (ip), vehicle: other 117 % of control | dose: 12.5 mg/kg/injection, schedule: Q01DX009 (ip), vehicle: other 107 % of control | dose: 25.0 mg/kg/injection, schedule: Q01DX009 (ip), vehicle: other 113 % of control | [11] 118 % of control | [4] 100 % of control | [12] 106 % of control | [13] 111 % of control | dose: 400.0 mg/kg/injection, schedule: Q01DX009 (ip), vehicle: saline with Tween-80 116 % of control

COc1cc2c(cc1O)-c1[nH]ncc1CCC2
inactive: dose: 100.0 mg/kg/injection, schedule: Q04DX003 (ip), vehicle: saline 101 % of control | dose: 200.0 mg/kg/injection, schedule: Q04DX003 (ip), vehicle: saline 97 % of control | [16] 102 % of control

COC(=O)c1ccc(SCCCN2CCOCC2)cc1
inactive: dose: 100.0 mg/kg/injection, schedule: Q01DX009 (ip), vehicle: saline 91 % of control | dose: 176.0 mg/kg/injection, schedule: Q04DX003 (ip), vehicle: saline 90 % of control | dose: 200.0 mg/kg/injection, schedule: Q01DX009 (ip), vehicle: saline 91 % of control | dose: 264.0 mg/kg/injection, schedule: Q04DX003 (ip), vehicle: saline 95 % of control | dose: 400.0 mg/kg/injection, schedule: Q01DX009 (ip), vehicle: saline 100 % of control | [16] 104 % of control

Cc1ccc(S(=O)(=O)OC(C#N)c2ccccc2)cc1 (stereo unspecified)
inactive: [5] 111 % of control | [6] 102 % of control | [7] 100 % of control | dose: 400.0 mg/kg/injection, schedule: Q01DX009 (ip), vehicle: Klucel (hydroxypropylcellulose) (HPC) 106 % of control

CN(C)N1C(=O)c2c(Cl)c(Cl)c(Cl)c(Cl)c2C1=O
inactive: [14] 94 % of control | [15] 89 % of control

NC(=O)Nc1n[nH]c(-c2ccccc2)n1
inactive: dose: 100.0 mg/kg/injection, schedule: Q04DX003 (ip), vehicle: saline with Tween-80 90 % of control | dose: 200.0 mg/kg/injection, schedule: Q04DX003 (ip), vehicle: saline with Tween-80 90 % of control | dose: 400.0 mg/kg/injection, schedule: Q04DX003 (ip), vehicle: saline with Tween-80 90 % of control
